Reference: patent publication US6855711B1, “Pharmaceutical compositions comprising iron chelators for the treatment of neurodegenerative disorders and some novel iron chelators” (Yeda Research and Development Co. Ltd., priority 1999, dated 2005)
Entries after “also recorded” stand apart in the source; their conditions may differ. Like-named read-outs stand apart in the source and are kept apart here. Marks after values point to notes of the source that are not given here.

How the values were obtained:
[1] = test system: iron-induced lipid peroxidation (MDA formation) in rat brain cortex homogenates; assay: Prevention of iron-induced lipid peroxidation (MDA formation, TBA method) in rat brain cortex homogenates; type: biochemical; details: 10^−3M chelator; for reduction of iron-induced MDA formation: 10^−4M ferric chloride
Experimental: The ability of the compounds of the invention to prevent lipid peroxidation in brain tissue was first screened in rat brain homogenates in vitro by a method involving the detection of free radicals performed by […] and measurement of the MDA formation, as described by D. Ben-Shachar et al. (1991) J. Neurochem. 57: 1609-14. In this method, brain cortex homogenates are prepared in sucrose and incubated alone to determine basal lipid peroxidation, or incubated after the addition of Fe2(SO4)3 or FeCl3 for Fe-induction of maximum free-radical formation, and in the presence of the iron chelators to be tested. After addition of TBA, lipid peroxidation is assayed by measurement of MDA formation.
Brain cortex homogenates (10% wt/vol) from male Wistar rats were prepared in 0.3M sucrose and incubated in air as described (Rehncrona et al., (1980) J. Neurochem. 34: 1630-38). Aliquots (0.1 ml) of homogenate were incubated alone at 30° C. for 90 min to determine basal lipid peroxidation, or incubated after the addition of 10^−4 Fe2(SO4), or FeCl3 and in the presence of 10^−3M iron chelator of formula I or II. For the assay, to 0.3 ml of the homogenate there were added 0.2 ml of 8% SDS, 1.5 ml of 20% acetic acid pH 3.0-3.5, 1.5 ml of 0.8% thiobarbituric acid (TBA) and 0.5 ml of H2O2×2, the mixture was incubated at 95° C. for 60 min, cooled and lipid peroxidation was assayed by measurement of malondialdehyde formation at 532 nm, as described (Dexter et al. (1989) J. Neurobiochem. 52: 381-89). Standard curve: 1,1,3,3-tetraethoxypropane 0.1-25 nmol in 0.3 ml.
In another experiment, the Compounds 3, 7, 9-17 and 26 were examined for their ability to inhibit lipid peroxidation in vitro by measuring their capability to inhibit MDA formation in the presence of 10^−4M FeCl3 in rat brain homogenates. Ferric chloride(10^−4M)-induced lipid peroxidation, as measured by MDA formation in rat cerebral cortex homogenates, was inhibited to a different degree by 10^−3M of the various chelators.

[2] = test system: 6-OHDA-induced lesion of nigrostriatal dopamine neurons; assay: Prevention of 6-OHDA-induced toxicity in rats (striatal biogenic amines and metabolites by HPLC); type: in vivo, rat
Experimental: Male Sprague-Dawley rats, weighing 230-270 g, were housed in a controlled-temperature room with a standardized dark-light schedule (12/12 h) for 4 weeks. Rats were anesthetized with a mixture of 15 mg/kg of pentobarbital and 60 mg/kg of chloral hydrate. 6-OHDA (250 μg in 5 μl of 0.9% NaCl containing 0.2% ascorbic acid), the chelator 3 or 15 (200 μg in 5 μl), a combination of both (the chelator 3 or 15 15 min before 6-OHDA), or saline (5 μl) (control) was injected into the right cerebral ventricle using stereotactic techniques. The coordinates with bregma as the reference were D 0.8 mm, L 1.3 mm, and V 3.6 mm according to the atlas of Paxinos and Watson. Pargyline (50 mg/kg i.p.) and desmethylimipramine-HCl (25 mg/kg i.p.) were administered to all the rats 60 min before intracerebroventricular injection. Pargyline inhibits monoamine oxidase and thereby enhances the toxicity of 6-OHDA, and desmethylimipramine provides protection for central noradrenergic neurons from the toxin. All the animals received a daily injection of isotonic glucose (4 ml/day i.p.) until they regained their original body weight. Behavioral tests were performed 4 weeks after operation, commencing between 8 and 10 a.m. The rats were killed after the behavioral studies. Desferal was obtained from Ciba Geigy, and other chemicals were from Sigma (St. Louis, Mo., U.S.A.).
Norepinephrine (NE), DA, and metabolite levels were measured as follows: four weeks postoperatively, rats were killed by decapitation, and the brains were rapidly removed. The striata were dissected on an ice-chilled glass plate and quickly frozen in liquid nitrogen. The endogenous levels of NE, DA, 3,4-dihydroxyphenylacetic acid (DOPAC), and homovanillic acid (HVA) were determined by HPLC with electrochemical detection (Ben-Shachar et al. (1991) Eur. J. Pharmacol. 202:177-83). All data are expressed as mean±SEM values. Statistical analysis was carried out by analysis of variance with multiple comparisons followed by Student's t test.
Striatal dopamine and its metabolites DOPAC and HVA concentrations, which were determined by HPLC, served as a criteria for the extent of the damage caused by 6-OHDA in the presence or absence of the iron chelators. […] Dopamine turnover was normal in rats pretreated with iron chelators (Table 1).
Based on confirmation properties of the two iron chelators 3 and 15, it was considered that Compound 15 has a better chance to cross the blood-brain-barrier (BBB) and the studies were continued with Compound 15. In order to decrease to minimum the possibility of a direct interaction between the chelator and the toxin as a cause for the protection, and to try to find a smaller effective dose of the chelator, 1 μg Compound 15 was injected intraventricularly prior to the injection of 250 μg 6-OHDA.
The main goal at this stage of research was to find out whether Compound 15 given peripherally would be able to prevent 6-OHDA-induced toxicity. In other words the question was whether the chelator will stay stable in the periphery, cross the BBB and […]. Control group received phosphate buffer pH−6.4 0.1M. On the 11th day, the rats of both groups were injected intraventricularly with 250 μg 6-OHDA.

[3] = test system: 6-OHDA-induced dopaminergic neuron degeneration; details: cited from earlier work
[4] = Table 1: 200 μg chelator intraventricular prior to 250 μg 6-OHDA (Comb.), 6-OHDA = 250 μg 6-OHDA alone
[5] = Table 1: 200 μg chelator intraventricular prior to 250 μg 6-OHDA (Comb.), 6-OHDA = 250 μg 6-OHDA alone, mean±SEM
[6] = Table 2: 1 μg chelator 15 intraventricular prior to 250 μg 6-OHDA (Comb.), 6-OHDA = 250 μg 6-OHDA alone
[7] = Table 3: chelator 15 5 mg/Kg/day i.p. for 10 days + 250 μg 6-OHDA intraventricular (Comb.), 6-OHDA = 250 μg 6-OHDA without chelator
[8] = intracerebroventricular 6-OHDA (250 μg)

## Cl.Cl.Cl.Oc1ccc(CN2CCNCC2)c2cccnc12
other
  melting point: 232 to 234 °C (dec.)

## Cl.Cl.Cl.Cl.Oc1ccc(CN2CCN(Cc3ccc(O)c4ncccc34)CC2)c2cccnc12
other
  melting point: 227 to 228 °C

## O=C(CCC(CN(CC(=O)OCc1ccccc1)CC(=O)OCc1ccccc1)N(CC(=O)OCc1ccccc1)CC(=O)OCc1ccccc1)NCCN1CCN(C(=O)OCc2ccccc2)CC1 (stereo not shown) [Compound 1, N-[2-(4-carbobenzoxypiperazin-1-yl)ethyl]-4,5-bis[bis(benzyloxycarbonylmethyl)amino]valeramide]
[1]
  reduction of iron-induced MDA formation: ~50%

## CC(=O)c1cc(CN2CCN(CCO)CC2)ccc1O [Compound 5, 2-acetyl-4-[4-(2-hydroxyethyl)piperazin-1-yl-methyl]phenol]
other
  melting point: 72 to 75 °C

## NCCc1cc(O)c(O)cc1O [Compound 6-OHDA, 6-hydroxydopamine]
[2]; 250 μg 6-OHDA intraventricular, rats
  decrease in striatal dopamine levels: 80%
[2]; [4]
  (DOPAC + HAV)/DA (dopamine turnover): 0.202
[2]; [5]
  5-HIAA in rat striatum: 3.76 ± 0.20 pmol/mg tissue
  5-HT in rat striatum: 4.00 ± 0.35 pmol/mg tissue
  DA in rat striatum: 19.93 ± 5.0^c pmol/mg tissue
  DOPAC in rat striatum: 1.79 ± 0.25^a pmol/mg tissue
  HVA in rat striatum: 2.24 ± 0.23 pmol/mg tissue
  NE in rat striatum: 5.0 ± 0.1 pmol/mg tissue
[2]; [6]
  5-HIAA in rat striatum: 6.29 ± 0.65 pmol/mg tissue
  5-HT in rat striatum: 3.22 ± 0.42 pmol/mg tissue
  (DOPAC + HAV)/DA (dopamine turnover): 0.14
  DA in rat striatum: 12.93 ± 3.3^a pmol/mg tissue
  DOPAC in rat striatum: 0.76 ± 0.11^a pmol/mg tissue
  HVA in rat striatum: 1.10 ± 0.21^a pmol/mg tissue
  NE in rat striatum: 1.1 ± 0.1 pmol/mg tissue
[2]; [7]
  5-HIAA in rat striatum: 1.57 ± 0.07 pmol/mg tissue
  5-HT in rat striatum: 2.60 ± 0.15 pmol/mg tissue
  (DOPAC + HAV)/DA (dopamine turnover): 0.16
  DA in rat striatum: 9.69 ± 2.63^a pmol/mg tissue
  DOPAC in rat striatum: 0.51 ± 0.11^A pmol/mg tissue
  HVA in rat striatum: 1.05 ± 0.19^A pmol/mg tissue
  NE in rat striatum: 1.22 ± 0.04 pmol/mg tissue
[3]; [8]
  increase in DA release as indicated by the HVA/DA ratio: 2.5 fold
  reduction in striatal tissue content of DOPAC: 79%
  reduction in striatal tissue content of HVA: 70%
  reduction in striatal tissue content of dopamine (DA): 88%

## OCCN1CCN(Cc2ccc(O)c3ncccc23)CC1 [Compound 15, 5-(4-(2-hydroxyethyl)piperazin-1-ylmethyl)-8-hydroxyquinoline]
[2]; 1 μg intraventricular prior to 250 μg 6-OHDA
  prevention of 6-OHDA-induced lesion, in words: effective in preventing 6-OHDA-induced lesion
[2]; 200 μg chelator intraventricular prior to 250 μg 6-OHDA
  prevention of 6-OHDA-induced reduction in striatal dopamine and DOPAC concentrations, in words: efficiently prevented
[2]; 5 mg/Kg i.p. for 10 days before intraventricular 250 μg 6-OHDA
  protection against 6-OHDA toxicity, in words: Partial but significant protection; also recorded: partially protected
[2]; [4]
  (DOPAC + HAV)/DA (dopamine turnover): 0.15
[2]; [5]
  5-HIAA in rat striatum: 4.48 ± 0.38 pmol/mg tissue
  5-HT in rat striatum: 4.24 ± 0.43 pmol/mg tissue
  DA in rat striatum: 33.8 ± 4.3 pmol/mg tissue
  DOPAC in rat striatum: 2.45 ± 0.25 pmol/mg tissue
  HVA in rat striatum: 2.67 ± 0.33 pmol/mg tissue
  NE in rat striatum: 5.01 ± 0.1 pmol/mg tissue
[2]; [6]
  5-HIAA in rat striatum: 4.98 ± 0.46 pmol/mg tissue
  5-HT in rat striatum: 4.84 ± 0.45 pmol/mg tissue
  (DOPAC + HAV)/DA (dopamine turnover): 0.08
  DA in rat striatum: 62.9 ± 3.13 pmol/mg tissue
  DOPAC in rat striatum: 2.49 ± 0.13 pmol/mg tissue
  HVA in rat striatum: 2.77 ± 0.25 pmol/mg tissue
  NE in rat striatum: 1.3 ± 0.12 pmol/mg tissue
[2]; [7]
  5-HIAA in rat striatum: 1.59 ± 0.16 pmol/mg tissue
  5-HT in rat striatum: 2.6 ± 0.31 pmol/mg tissue
  (DOPAC + HAV)/DA (dopamine turnover): 0.15
  DA in rat striatum: 24.4 ± 4.4^ab pmol/mg tissue
  DOPAC in rat striatum: 1.4 ± 0.25 pmol/mg tissue
  HVA in rat striatum: 2.28 ± 0.75 pmol/mg tissue
  NE in rat striatum: 1.21 ± 0.4 pmol/mg tissue
[1]; 10^−4M FeCl3, rat cerebral cortex homogenates
  inhibition of MDA formation (lipid peroxidation), in words: most effective
[1]
  reduction of iron-induced MDA formation: ~50%

## CC(=O)N(O)CCCCCNC(=O)CCC(=O)N(O)CCCCCNC(=O)CCC(=O)N(O)CCCCCN [desferrioxamine]
[3]; 13 ng i.c.v. prior to 6-OHDA (250 μg)
  protection against the 6-OHDA-induced reduction in striatal DA content: 100%
[3]; 130 ng i.c.v. prior to 6-OHDA (250 μg)
  protection against the 6-OHDA-induced reduction in striatal DA content: ~60%
[3]; desferrioxamine i.c.v. prior to 6-OHDA
  DA release (HVA/DA ratio), in words: normalization of DA release
[3]; desferrioxamine-pretreated rats, 6-OHDA
  dopaminergic-related behavioral responses (spontaneous movements in a novel environment, rearing), in words: almost normal behavioral responses
[3]; rats
  protection against 6-OHDA-induced lesions of nigrostriatal dopamine neurons, in words: protected
